Experimental findings from patent publication US7166599B2, “Trisubstituted pyrimidines” (Boehringer Ingelheim Pharma GmbH & Co. KG, priority 2001, dated 2007) are described below.

System in the first data set: not given
Experiment: not given
Conditions: not given
In general, melting point refers to the temperature of the solid-liquid transition. Molecule `CNc1nc(Nc2ccc(S(C)(=O)=O)cc2)ncc1[N+](=O)[O-]` [Example 10 b), 2-(4-methylsulphonylphenylamino)-4-methylamino-5-nitropyrimidine] returned a melting point of 323 °C.
On to `CNc1nc(Nc2ccc([S+](C)[O-])cc2)ncc1[N+](=O)[O-]` (stereo not drawn) [Example 10 a), 2-(4-methylsulphinylphenylamino)-4-methylamino-5-nitropyrimidine], for which the melting point turned out to be 288 °C.
The same measure, in the same setting: under `CNc1nc(Nc2cccc(OCCN)c2)ncc1[N+](=O)[O-].Cl.Cl` stands 270 °C.

For a further data set, the system named is γ-secretase. Nature of the data set: γ-secretase HTS luciferase reporter assay (inhibition of Aβ formation) in H4 neuroglioma cells stably carrying pFRLuc and Aβ-KKK/Gal4. It is filed as cell-based. Particulars: luciferase activity (Steady-Glo) in doubly stable H4 neuroglioma HTS cell line, test substance incubated overnight (8–16 h), compared with control. An excerpt: The inhibition of Aβ formation was investigated using the following test system:
Preparation of a suitable γ-secretase HTS cell line:
H4 neuroglioma cells (Accession number HTB 148 at the “American Type Culture Collection”, Manassas, Va., USA) were transfected under standard conditions with the reporter construct pFRLuc (Stratagene) which carries the gene for luciferase. By transient transfection experiments with pcDNA3-Gal4 which codes for the soluble Gal4, an individual clone having the highest luciferase activity was selected. In order to prepare the Aβ-KKK/Gal4 construct, a sequence containing the N-terminal signal sequence of APP and the first 55 amino acids of Aβ (Shoji et al, 1992) was linked to the Gal4 coding sequence (Laughan, A and Gesteland, R Molec. Cell Biol., 1984, 4: 260–267) by genetic engineering and cloned into the expression vector pcDNA3neo (Invitrogen). This construct was called pcDNA3-AβKKK/Gal4. In order to insert an ER-retention signal in the substrate of the γ-secretase, the last nucleotides of the Gal4 were altered by genetic engineering so that they coded for the amino acids KKLI. This construct was named Aβ-KKK-ER. The cell clone obtained as described above was used for the second stable transfection with pcDNA3-Aβ-KKK/Gal4 or pcDNA3-Aβ-KKK-ER and the selection with neomycin was carried out under standard conditions (Sambrook and Maniatis, 1989). Individual neomycin-resistant cell clones were investigated for their expression of luciferase. The clones with the highest expression were used for the substance analyses. All the transfections were carried out using the Fugene transfection system supplied by Boehringer Mannheim, in accordance with the manufacturer's instructions.
The doubly stabile HTS cell line is seeded onto a 96/384 microtitre plate. When the cells are confluent, they are incubated with the particular test substance for a specified length of time. After incubation the cell medium is removed and the luciferase enzyme activity is determined precisely as instructed by the manufacturer of the test kit used (SteadyGlo, Promega).
As a result of the presence of an endogenous γ-secretase activity in the H4 cells the substrate (Aβ-KKK/Gal4) is cleaved proteolytically, while the transactivator Gal4 is able to become detached from the membrane and enter the cell nucleus. In the cell nucleus Gal4 binds to the Gal4-DNA binding domain of the reporter construct and thus activates the expression of the luciferase. If a specific γ-secretase inhibitor is present the substrate cannot be cleaved and Gal4 remains bound to the substrate on the cell membrane, leading to a reduction amounting to total inhibition of the luciferase activity.
Cells are seeded on 96/384 well plates in DMEM complete medium (10% FCS, 1% glutamine, 1% penicillin/streptomycin) in a dilution of 1:5. The cells are incubated for 24 to 48 h (depending on the cell clone and the dilution used) at 37° C., 5% CO2 and allowed to grow until 80–90% confluence is achieved. Then the test substance is added and the preparation is incubated overnight (8–16 h) at 37° C. and 5% CO2. The 96/384 well plates are equilibrated to ambient temperature (RT). The “Steady-Glo” Luciferase Assay System Kit (Promega catalogue no. E2520) is used. The Luciferase Assay Reagent is thawed and equilibrated to ambient temperature or freshly prepared (Luciferase Assay Substrate dissolved in Luciferase Assay Buffer). The medium is suction filtered […]. 100 μl (based on 96 well plates) of fresh complete medium are added per well. 100 μl (based on 96 well plates) of Luciferase Assay Reagent are added and the preparation is incubated for 5 min at RT. Then the luminescence is measured. For 384 well plates the quantities pipetted are reduced accordingly.
The measurements are compared with the control and then the IC50 is determined from a number of measurements.
Background: A reporter such as luciferase makes a cellular process visible.
Usually IC50 stands for the point on the concentration scale where inhibition reaches its midpoint. Low values mean greater potency, high ones weaker potency. In turn, `CNc1nc(Nc2ccc(Cl)c(Cl)c2)ncc1NC(=S)N1CCOCC1` [11 (12), 2-(3,4-dichlorophenylamino)-4-methylamino-5-(morpholinothiocarbonylamino)-pyrimidine] showed an IC50 of 1000 nM.
On the same count and under the same terms, under `CCN(CC)C(=O)Nc1cnc(Nc2ccc(Cl)c(Cl)c2)nc1NC` [11 (5), 2-(3,4-dichlorophenylamino)-4-methylamino-5-(diethylaminocarbonylamino)-pyrimidine] stands 100 nM; under `CNc1nc(Nc2ccc(Cl)c(Cl)c2)ncc1NC(=O)N1CCCC1` [Example 11, 2-(3,4-dichlorophenylamino)-4-methylamino-5-(pyrrolidinocarbonylamino)-pyrimidine], 100 nM; under `CNc1nc(Nc2ccc(Cl)c(Cl)c2)ncc1NC(=O)N1CCCCCC1` [11 (4), 2-(3,4-dichlorophenylamino)-4-methylamino-5-(hexamethyleneiminocarbonylamino)-pyrimidine], 60 nM.
Same read-out and setting: under `CNc1nc(Nc2ccc(Cl)c(Cl)c2)ncc1NC(=O)N1CCOCC1` [3 (30), 2-(3,4-dichlorophenylamino)-4-methylamino-5-morpholinocarbonylamino-pyrimidine] stands 200 nM; under `CNc1nc(Nc2ccc(Cl)c(Cl)c2)ncc1NC(=O)N(CCOC)CCOC` [11 (3), 2-(3,4-dichlorophenylamino)-4-methylamino-5-[[bis-(2-methoxyethyl)amino]-carbonylamino]-pyrimidine], 4 nM; under `CNc1nc(Nc2ccc(Cl)c(Cl)c2)ncc1N1CCCNC1=O` [3 (33), 2-(3,4-dichlorophenylamino)-4-methylamino-5-(tetrahydro-2(1H)-pyrimidinon-1-yl)-pyrimidine], 300 nM.
Molecule `CNc1nc(Nc2ccc(Cl)c(Cl)c2)ncc1NC(=O)N(C)CCCN(C)C` [11 (11), 2-(3,4-dichlorophenylamino)-4-methylamino-5-[[N-methyl-(3-dimethylaminopropyl)amino]carbonylamino]-pyrimidine] returned a 50% inhibitory concentration (IC50) of 700 nM.
`CNc1nc(Nc2ccc(Cl)c(Cl)c2)ncc1NC(N)=O` [3 (40), 2-(3,4-dichlorophenylamino)-4-methylamino-5-aminocarbonylamino-pyrimidine] had an IC50 of 350 nM.
`CNc1nc(Nc2ccc(Cl)c(Cl)c2)ncc1N(C)S(C)(=O)=O` [Example 8, 2-(3,4-dichlorophenylamino)-4-methylamino-5-(N-methyl-methylsulphonylamino)-pyrimidine] showed a half-maximal inhibitory concentration (IC50) of 1100 nM.
Turning to `CNc1nc(Nc2ccc(Cl)cc2)ncc1[N+](=O)[O-]` [1 (1), 2-(4-chlorophenylamino)-4-methylamino-5-nitro-pyrimidine], half-maximal inhibition (IC50) required 800 nM.
The same measure, in the same setting: under `CNc1nc(Nc2ccc(Cl)c(Cl)c2)ncc1NS(C)(=O)=O` [3 (3), 2-(3,4-dichlorophenylamino)-4-methylamino-5-methylsulphonylamino-pyrimidine] stands 60 nM; under `CNc1nc(Nc2ccc(Cl)c(Cl)c2)ncc1N1CCNC1=O` [3 (26), 2-(3,4-dichlorophenylamino)-4-methylamino-5-(imidazolidin-2-on-1-yl)-pyrimidine], 600 nM.
The molecule `CNc1nc(Nc2ccc(Cl)c(Cl)c2)ncc1NC(=O)C(F)(F)F` [3 (66), 2-(3,4-dichlorophenylamino)-4-methylamino-5-trifluoracetylamino-pyrimidine] had an IC50 of 800 nM.
On to `CNc1nc(Nc2ccc(Cl)c(Cl)c2)ncc1NC(=O)N1CCN(C)CC1` [11 (2), 2-(3,4-dichlorophenylamino)-4-methylamino-5-(4-methylpiperazinocarbonylamino)-pyrimidine], for which the half-inhibitory concentration (IC50) stood at 100 nM.
Still for that read-out and setting: under `CNc1nc(Nc2ccc(Cl)c(Cl)c2)ncc1NC(=O)N1CCNCC1` [11 (6), 2-(3,4-dichlorophenylamino)-4-methylamino-5-(piperazinocarbonylamino)-pyrimidine] stands 700 nM.
Still for that read-out and setting: under `CNc1nc(Nc2ccc(Cl)c(Cl)c2)ncc1N` [2 (1), 2-(3,4-dichlorophenylamino)-4-methylamino-5-amino-pyrimidine] stands 1000 nM; under `CNc1nc(Nc2cccc(Cl)c2)ncc1NC(=O)N1CCOCC1` [3 (59), 2-(3-chlorophenylamino)-4-methylamino-5-(morpholinocarbonylamino)-pyrimidine], 150 nM.
The molecule `CNc1nc(Nc2ccc(Cl)cc2F)ncc1NC(=O)N(C)C` [3 (36), 2-(4-chloro-2-fluorophenylamino)-4-methylamino-5-(N,N-dimethylcarbamoyl-amino)-pyrimidine] displayed an IC50 of 250 nM.
As to `CCNc1nc(Nc2ccc(Cl)c(Cl)c2)ncc1NC(=O)N1CCOCC1` [3 (55), 2-(3,4-dichlorophenylamino)-4-ethylamino-5-(morpholinocarbonylamino)-pyrimidine], the IC50 amounted to 900 nM.
Still for that read-out and setting: under `CN(C)c1nc(Nc2ccc(Cl)c(Cl)c2)ncc1NC(=O)N1CCOCC1` [3 (54), 2-(3,4-dichlorophenylamino)-4-dimethylamino-5-(morpholinocarbonylamino)-pyrimidine] stands 900 nM; under `CNc1nc(Nc2ccc(Cl)c(Cl)c2)ncc1NC(=O)N1CCN(C(C)=O)CC1` [11 (7), 2-(3,4-dichlorophenylamino)-4-methylamino-5-(4-acetylpiperazinocarbonylamino)-pyrimidine], 1000 nM.
Still for that read-out and setting: to `CN(C)CCCNc1nc(Nc2ccc(Cl)c(Cl)c2)ncc1[N+](=O)[O-]` [4 (9), 2-(3,4-dichlorophenylamino)-4-[3-(dimethylamino)propylamino]-5-nitro-pyrimidine] belongs 1000 nM; to `CNc1nc(Nc2ccc(Cl)c(Cl)c2)ncc1NC(=O)N(C)CCO` [11 (8), 2-(3,4-dichlorophenylamino)-4-methylamino-5-[[N-methyl-(2-hydroxyethyl)-amino]carbonylamino]-pyrimidine], 200 nM; to `CNc1nc(N(C)c2ccc(Cl)c(Cl)c2)ncc1N1CCNC1=O` [8 (2), 2-[N-(3,4-dichlorophenyl)-N-methylamino]-4-methylamino-5-(imidazolidin-2-on-1-yl)-pyrimidine], 1000 nM.
On the same count and under the same terms, under `CNc1nc(Nc2ccc(Cl)c(Cl)c2)ncc1NC(C)=O` [3 (4), 2-(3,4-dichlorophenylamino)-4-methylamino-5-acetylamino-pyrimidine] stands 60 nM; under `CNc1nc(Nc2ccc(Cl)c(Cl)c2)ncc1NC(=O)N(C)CCN(C)C` [11 (10), 2-(3,4-dichlorophenylamino)-4-methylamino-5-[[N-methyl-(2-dimethylamino-ethyl)amino]carbonylamino]-pyrimidine], 800 nM.
